US7524930B2, “Tumor antigen” (Green Peptide Co., Ltd, priority 2003, dated 2009)

Key:
OK-CTLp or OK-CTL clone = assay: Recognition of peptide-pulsed T2 cells by OK-CTLp or OK-CTL clone (IFN-γ ELISA); format: cell-based, human
[1] = system: human peripheral blood mononuclear cells (PBMC); assay: CTL induction by peptide from PBMC of HLA-A2-positive cancer patients and healthy individuals, IFN-γ against peptide-pulsed T2 cells (Example 6); format: cell-based; conditions: for INF-γ production: peptide-pulsed T2 cells; for Healthy individuals in whom CTL were induced from PBMC: six healthy individuals; for Patients in whom peptide-specific HLA-A2-restricted CTL were induced from PBMC: sixteen HLA-A2-positive cancer patients
Method: For six peptides (P21, P22, P24, P26, P30, and P32) with a purity of 95% or higher among peptides from P20 to P32 derived from gene 7 and CPSF among the tumor antigen peptide obtained in Example 4, the activity to induce CTL in vitro from human peripheral blood mononuclear cells (PBMC) was examined using IFN-γ production as an indicator. PBMC used was prepared from each peripheral blood of sixteen HLA-A2-positive cancer patients (4 patients with pancreatic cancer, seven patients with stomach cancer, and 5 patients with colon cancer) and six healthy individuals. Specifically, 1×10^5 PBMC was added to each well of 96-well U-bottom type microculture plate (Nunc Corp.) and incubated together with 10 μM of each of the above-described peptides in 200 μl culture medium. The culture medium consisted of 45% RPMI-1640, 45% AIM-V (Invitrogen Corp.,) 10% fetal calf serum (FCS), 100U/ml of human interleukin-2, and […] MEM nonessential amino acid solution (Invitrogen Corp.). At day 4 and day 7 after the start of culturing, half of the culture medium was removed and replaced with the above-described composition containing each corresponding peptide. At day 10 after the start of culturing, the cells were collected and washed, followed by reacting with T2 cells, which were pulsed with each corresponding peptide, to measure the amount of IFN-γ produced.

[2] = system: Panc-1 pancreatic adenocarcinoma cell (HLA-A2); assay: 6-h 51Cr-releasing test of peptide-stimulated PBMC against Panc-1 (Example 6); format: cell-based, human
Method: Meanwhile, the above-described cells cultured for 10 days after stimulation by the peptide were further cultured for 10 days. The cytotoxicity of the obtained cells against the Panc-1 pancreatic adenocarcinoma cell (HLA-A2) was measured by the standard 6-h ^51Cr-releasing test in an E/T ratio of 10:1. The results obtained are presented as % specific lysis (table 7). Together with this step, cytotoxicity against SSTW-9 tumor cell as the HLA-A2^− tumor cell was measured to use as a background that was subtracted from the above-described result.

[3] = concentration of peptide 0.1 μM
[4] = PBMC of colon cancer patient 12
[5] = PBMC of colon cancer patient 13
[6] = PBMC of colon cancer patient 14
[7] = PBMC of colon cancer patient 15
[8] = PBMC of colon cancer patient 16
[9] = PBMC of pancreatic cancer patient 1
[10] = PBMC of pancreatic cancer patient 2
[11] = PBMC of pancreatic cancer patient 3
[12] = PBMC of pancreatic cancer patient 4
[13] = PBMC of stomach cancer patient 5
[14] = PBMC of stomach cancer patient 6
[15] = PBMC of stomach cancer patient 7
[16] = PBMC of stomach cancer patient 8
[17] = PBMC of stomach cancer patient 9
[18] = PBMC of stomach cancer patient 10
[19] = PBMC of stomach cancer patient 11
[20] = PBMC of colon cancer patient 14, Panc-1, E/T 10:1

Sequence | IFN-γ production (OK-CTLp or OK-CTL clone; [3]) [pg/mL] | IFN-γ production (OK-CTLp or OK-CTL clone; concentration of peptide 1 μM) [pg/mL] | IFN-γ production (OK-CTLp or OK-CTL clone; concentration of peptide 10 μM) [pg/mL] | IFN-γ production (OK-CTLp or OK-CTL clone; concentration of peptide 50 μM) [pg/mL] | INF-γ production [1, 4] [pg/mL] | INF-γ production [1, 5] [pg/mL] | INF-γ production [1, 6] [pg/mL] | INF-γ production [1, 7] [pg/mL] | INF-γ production [1, 8] [pg/mL] | INF-γ production ([1]; PBMC of healthy individual HD1) [pg/mL] | INF-γ production ([1]; PBMC of healthy individual HD2) [pg/mL] | INF-γ production ([1]; PBMC of healthy individual HD3) [pg/mL] | INF-γ production ([1]; PBMC of healthy individual HD4) [pg/mL] | INF-γ production ([1]; PBMC of healthy individual HD5) [pg/mL] | INF-γ production ([1]; PBMC of healthy individual HD6) [pg/mL] | INF-γ production [1, 9] [pg/mL] | INF-γ production [1, 10] [pg/mL] | INF-γ production [1, 11] [pg/mL] | INF-γ production [1, 12] [pg/mL] | INF-γ production [1, 13] [pg/mL] | also measured
DMWTVIAPV (Designed peptide having an ability to activate HLA-A2 restricted Cytotoxic T lymphocytes) [Peptide P22, CPSF 534-542] | 254 | 1027 | 431 | 407 | 92 | 179 | 80 | 5 | 0 | 0 | 0 | 0 | 0 | 0 | 14 | 0 | 38 | 0 | 8 | 0 | INF-γ production [1, 14]: 0 pg/mL; INF-γ production [1, 15]: 0 pg/mL; INF-γ production [1, 16]: 0 pg/mL; INF-γ production [1, 17]: 0 pg/mL; INF-γ production [1, 18]: 0 pg/mL; INF-γ production [1, 19]: 0 pg/mL; Healthy individuals in whom CTL were induced from PBMC [1]: 33%; Patients in whom peptide-specific HLA-A2-restricted CTL were induced from PBMC [1]: 38%; % specific lysis ([2]; PBMC of colon cancer patient 12, Panc-1, E/T 10:1): 28%; % specific lysis [2, 20]: 19%; % specific lysis ([2]; PBMC of pancreatic cancer patient 2, Panc-1, E/T 10:1, SSTW-9 background subtracted): 37%
ELLNRYLYL [Peptide P27] | 352 | 889 | 250 | 0 | – | – | – | – | – | – | – | – | – | – | – | – | – | – | – | – | –
KVHPVIWSL [Peptide P21] | 428 | 501 | 81 | 195 | 0 | 0 | 66 | 0 | 140 | 0 | 0 | 58 | 5 | 224 | 97 | 0 | 7 | 0 | 543 | 0 | INF-γ production [1, 14]: 0 pg/mL; INF-γ production [1, 15]: 0 pg/mL; INF-γ production [1, 16]: 5 pg/mL; INF-γ production [1, 17]: > 1500 pg/mL; INF-γ production [1, 18]: 0 pg/mL; INF-γ production [1, 19]: 136 pg/mL; Healthy individuals in whom CTL were induced from PBMC [1]: 50%; Patients in whom peptide-specific HLA-A2-restricted CTL were induced from PBMC [1]: 31%; % specific lysis [2, 20]: 11%; % specific lysis ([2]; PBMC of pancreatic cancer patient 4, Panc-1, E/T 10:1): 12%; % specific lysis ([2]; PBMC of stomach cancer patient 9, Panc-1, E/T 10:1): 27%; % specific lysis ([2]; PBMC of stomach cancer patient 11, Panc-1, E/T 10:1): 18%
LIMLQNALT [Peptide P28] | 898 | – | 0 | 144 | – | – | – | – | – | – | – | – | – | – | – | – | – | – | – | – | –
LIMLQNALTT (LLMLQNALTT; Designed peptide having an ability to activate HLA-A2 restricted Cytotoxic T lymphocytes) [Peptide P31, Gene 7 1358-1367] | 443 | – | – | 314 | – | – | – | – | – | – | – | – | – | – | – | – | – | – | – | – | –
LLLKYTEKL [Peptide P24] | 728 | – | 103 | 2 | – | – | – | – | – | – | – | – | – | – | – | – | – | – | – | – | –
